Measured values reported in patent publication US20250241923A1, “A DUAL SELECTIVE PI3K DELTA AND GAMMA INHIBITORS AND/OR A SALT-INDUCIBLE KINASE 3 INHIBITOR FOR TREATING SOLID TUMORS” (Incozen Therapeutics Pvt. Ltd, priority 2022, published 2025).

Tests used:
MCF-7 cell lines = test: Cell proliferation (MTT), Compound M and olaparib, MCF-7; type: cell-based; settings: Homo sapiens, MCF7, olaparib alone (5 μM, FIG. 5), 72 h, read-out: growth inhibition
Description: • MCF-7 cells were plated in MEM+10% FBS complete media at pre-determined density in a 96-well plate. • Cells were exposed to either DMSO (control) alone, Compound M alone, olaparib alone, or a combination of Compound M and olaparib. • Cells were incubated for 72 h in presence of the inhibitors. • MTT reaction was performed to determine the cell viability at the end of the treatment period and absorbance was measured at wavelength 560 and 640 nM. • % cell growth inhibitions were calculated, and Tukey's analysis was performed using GraphPad Prism to compare the treated groups.

[1] = system: OVCAR-3 ovarian cancer cell lines; test: Anti-proliferative activity with PARP inhibitors, OVCAR-3; type: cell-based; settings: Homo sapiens, read-out: growth inhibition
[2] = system: MDA-MB-231 breast cancer cell line; test: Anti-proliferative effect of taxol (Example 10), MDA-MB-231; type: cell-based; settings: taxol alone (Example 10)
[3] = system: ZR.75.1 breast cancer cell line; test: Anti-proliferative effect of taxol (Example 10), ZR.75.1; type: cell-based; settings: taxol alone (Example 10)
[4] = system: MCF-7 breast cancer cell line; test: Anti-proliferative effect of taxol (Example 10), MCF-7; type: cell-based; settings: taxol alone (Example 10)
[5] = system: SK-OV-3 ovarian cancer cell line; test: Anti-proliferative effect of taxol and Compound (M) (Example 10), SK-OV-3; type: cell-based; settings: Homo sapiens, taxol alone (6 nM, FIG. 7), read-out: growth inhibition
[6] = system: MDA-MB-231 breast cancer cell lines; test: cells; settings: Homo sapiens, MDA-MB-231, 72 h, read-out: growth inhibition
[7] = system: MCF-7 breast cancer cell lines; test: cells; settings: Homo sapiens, MCF7, 72 h, read-out: growth inhibition
[8] = system: SK-OV-3 ovarian cancer cell lines; test: Anti-proliferative activity with PARP inhibitors, SK-OV-3; type: cell-based; settings: Homo sapiens, single agent talazoparib (3 μM, FIG. 6B), read-out: growth inhibition

O=C(c1cc(Cc2n[nH]c(=O)c3ccccc23)ccc1F)N1CCN(C(=O)C2CC2)CC1 [Olaparib]
inhibition at 5 µM (MCF-7 cell lines): 43.2%
inhibition at 3 µM ([1]; olaparib alone (3 μM, FIG. 6C)): 29.3%

CC(=O)O[C@H]1C(=O)[C@@]2(C)[C@H]([C@H](OC(=O)c3ccccc3)[C@]3(O)C[C@H](OC(=O)[C@H](O)[C@@H](NC(=O)c4ccccc4)c4ccccc4)C(C)=C1C3(C)C)[C@]1(OC(C)=O)CO[C@@H]1C[C@@H]2O [Taxol]
growth inhibition [2]: 44.4%
growth inhibition [3]: 25.8%
growth inhibition [4]: 17.3%
inhibition at 0.006 µM [5]: 59.2%
inhibition at 0.003 µM [6]: 34.5%
inhibition at 0.003 µM [7]: 28.8%

Cn1ncnc1[C@H]1c2n[nH]c(=O)c3cc(F)cc(c23)N[C@@H]1c1ccc(F)cc1 [talazoparib]
inhibition at 0.1 µM ([1]; single agent talazoparib (0.1 μM, FIG. 6A)): 40.2%
inhibition at 3 µM [8]: 50%
